These results are taken from patent publication US20100247427A1, “Methods of inhibiting cell growth and methods of enhancing radiation responses” (University of South Florida, priority 2005, published 2010).

One experiment deals with DU145 cells. Briefly: TUNEL assay for apoptosis. In kind it is cell-based, Human. The note with it: Cisplatin plus radiation; FIG. 5. As to the method:
TUNEL assay. Cells were labeled for apoptotic DNA strand breaks by terminal deoxyribonucleotidyl transferase-mediated dUTP nick end labeling (TUNEL) reaction using a flow cytometry assay (Roche Applied Science, Indianapolis, Ind.) according to the instructions of the supplier. DU145 cells were treated with CPA-7 for 4 hours, then irradiated, and subjected to the TUNEL assay 24 to 48 hours later. To determine cellular viability, cells were harvested by trypsinization and counted by trypan blue exclusion assay at 24 and 48 hours after irradiation. All experiments were done in triplicate.
The enhancement of radiation responsiveness was also evident when apoptosis was measured using a TUNEL assay (FIGS. 4 and 5). DU145 cells were pre-treated for 4 hours with CPA-7 or vehicle alone prior to radiation. A TUNEL assay was performed 24 hours post-radiation and the results are depicted in FIG. 4. At 24 hours, only 2% of untreated cells had undergone spontaneous apoptosis. […] In contrast, 15.7% of cells treated with both radiation and CPA-7 had undergone apoptosis at 24 hours, indicative of a synergistic effect. FIG. 5 depicts the results of a similar assay in which cells were pre-treated with CPA-7 for 24 hours prior to irradiation. […] Additionally, not all platinum complexes have this effect.

A further experiment concerns the target Stat3 (Homo sapiens, UniProt P40763). As to conditions: other reports; cited from earlier work.

Sequence of Stat3 (P40763 whole entry, species assumed): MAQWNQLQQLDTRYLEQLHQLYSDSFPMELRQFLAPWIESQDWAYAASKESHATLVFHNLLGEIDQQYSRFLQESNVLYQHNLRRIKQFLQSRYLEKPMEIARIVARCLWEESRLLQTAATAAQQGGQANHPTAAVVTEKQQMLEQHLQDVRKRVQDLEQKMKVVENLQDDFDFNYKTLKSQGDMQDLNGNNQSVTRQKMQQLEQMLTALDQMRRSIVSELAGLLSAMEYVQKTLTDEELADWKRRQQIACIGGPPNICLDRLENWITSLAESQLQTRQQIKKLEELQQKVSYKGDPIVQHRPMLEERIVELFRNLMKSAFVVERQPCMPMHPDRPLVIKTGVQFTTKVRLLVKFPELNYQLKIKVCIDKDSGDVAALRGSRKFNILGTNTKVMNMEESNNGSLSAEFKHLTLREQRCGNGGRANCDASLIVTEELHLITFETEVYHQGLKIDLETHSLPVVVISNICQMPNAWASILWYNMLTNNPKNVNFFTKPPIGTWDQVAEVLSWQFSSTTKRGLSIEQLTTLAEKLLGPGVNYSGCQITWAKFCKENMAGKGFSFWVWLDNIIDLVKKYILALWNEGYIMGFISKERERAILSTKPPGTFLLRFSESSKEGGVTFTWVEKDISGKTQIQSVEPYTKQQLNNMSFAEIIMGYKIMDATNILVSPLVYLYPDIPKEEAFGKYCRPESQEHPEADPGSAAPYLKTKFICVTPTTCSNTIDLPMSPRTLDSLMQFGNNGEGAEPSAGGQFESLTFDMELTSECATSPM

Take `N.N.[Cl][Pt][Cl]` [Cisplatin]: the “apoptosis rate in combination with radiation (TUNEL)” value in the experiment with DU145 cells is given as “not significantly enhanced”. In addition, the “modulation of Stat3 activation” value at Stat3 was “does not modulate Stat3 activation”.
